Patent US10464957B2, “Oxidized lipids and methods of use thereof” (Vascular Biogenics Ltd., priority 2014, dated 2019)

Assays:
[1] = tested on: LPS (TLR4)-induced signaling in human monocytes (primary CD14+); assay: LPS (TLR4)-induced signaling, western blot; assay type: cell-based; conditions: western blot; for formation of p-IKK, p-ERK and p-p38 induced by LPS: 20 min pretreatment, 15 min activation with 100 ng/ml LPS
Method: (§1) Venous blood samples were obtained from healthy male donors in compliance with the Institutional Review Board at the Sheba Medical Center, Ramat Gan, Israel. PBMCs were isolated on Ficoll-Paque PLUS (GE Healthcare, Uppsala, Sweden) using 50 ml Leucosep tubes (Greiner Bio-One, Frickenhausen, Germany). Cells were washed in PBS (Kibbutz Beit Haemek, Israel) and incubated at 4° C. for 15 minutes in a buffer containing PBS and 0.5% bovine serum albumin (BSA) with human CD14 microbeads (Miltenyi Biotec, Bergisch Gladbach, Germany).
(§2) Cells (10^6/ml) were pretreated for 20 min with VB-201 (1-hexadecyl-2-(4′-carboxy)butyl-glycero-3-phosphocholine or 1-hexadecyl-2-(4′-carboxybutyl)-glycerol-3-phosphocholine) or VB-701 at the doses indicated in FIG. 2, or with solvent (Sol), followed by 15 min activation with 100 ng/ml lipopolysaccharide (LPS) or were untreated (Unt). Cells were washed and resuspended in lysis buffer containing 1:100 dithiothreitol (DTT), phosphatase and protease inhibitors (Thermo Scientific). Samples were loaded onto a precast Criterion TGX gel (Bio-Rad, Hemel Hempstead, UK) and transferred onto nitrocellulose membrane. Blots were blocked with 5% milk or BSA in Tris buffered saline and Tween 20 (TBST) for 1 h, followed by incubation with primary and secondary antibodies. Membranes were developed using an ECL kit (Thermo Scientific). The following antibodies were used for immunoblotting:
Primary antibodies: p-p38 (Cat. No. 4511; 1:1000) and p-IKK (Cat. No. 2697; 1:1000) were from Cell Signaling Technology (Danvers, Mass., USA). p-ERK1/2 (Cat. No. M8159; 1:10000) was purchased from Sigma (Israel). αTubulin (Tub) served as a loading control.
(§3) Secondary antibodies: HRP donkey anti-rabbit (1:5000) and HRP goat anti-mouse (1:3000) were from Jackson ImmunoResearch (West Grove, Pa., USA). HRP donkey anti-goat (1:5000) was from Santa Cruz Biotechnology.
as §2, with “VB-201” for “VB-201 (1-hexadecyl-2-(4′-carboxy)butyl-glycero-3-phosphocholine”, “VB-703” for “1-hexadecyl-2-(4′-carboxybutyl)-glycerol-3-phosphocholine) or VB-701 at the doses indicated in FIG. 2, or with solvent (Sol),”, “LPS.” for “lipopolysaccharide (LPS) or were untreated (Unt).”
Primary antibodies: p-p38 (Cat. No. 4511; 1:1000) and p-IKK (Cat. No. 2697; 1:1000) were from Cell Signaling Technology (Danvers, Mass., USA). p-ERK1/2 (Cat. No. M8159; 1:10000) was purchased from Sigma (Israel). Heat shock protein (HSP) 90 (Cat. No. 13119; 1:500) was from Santa Cruz Biotechnology (Santa Cruz, Calif., USA).

[2] = tested on: PGN (TLR2)-induced signaling in human monocytes (THP-1 cell line); assay: PGN (TLR2)-induced signaling, western blot; assay type: cell-based; conditions: 20 min pretreatment, 20 μg/ml PGN for 15 minutes
Method: The monocytic THP-1 cell line was purchased from the American Type Tissue Culture Collection (ATCC Cat. No. TIB-202). Cells (10^6/ml) were pretreated for 20 min with VB-201 or VB-701 at the doses indicated in FIG. 3, or with solvent, followed by activation with 20 μg/ml peptidoglycan (PGN) (InvivoGen, San Diego, Calif.) for 15 minutes, or were untreated (“Unt”). Cells were washed and resuspended in lysis buffer containing 1:100 dithiothreitol (DTT), phosphatase and protease inhibitors (Thermo Scientific). Samples were loaded onto a precast Criterion TGX gel (Bio-Rad, Hemel Hempstead, UK) and transferred onto nitrocellulose membrane. Blots were blocked with 5% milk or BSA in Tris buffered saline and Tween 20 (TBST) for 1 h, followed by incubation with primary and secondary antibodies. Membranes were developed using an ECL kit (Thermo Scientific). The following antibodies were used for immunoblotting:
Primary antibodies: p-p38 (Cat. No. 4511; 1:1000) and p-IKK (Cat. No. 2697; 1:1000) were from Cell Signaling Technology (Danvers, Mass., USA). p-ERK1/2 (Cat. No. M8159; 1:10000) was purchased from Sigma (Israel). αTubulin served as a loading control.
as §3

[3] = tested on: LPS (TLR4)-stimulated human monocytes (primary CD14+); assay: IL-12/23p40 ELISA, LPS (TLR4)-stimulated monocytes; assay type: cell-based; conditions: 1 hour pretreatment, 24 hour 100 ng/ml LPS, ELISA of supernatant
Method: (§4) Human monocytes were obtained as described in Example 9 and FIG. 9A-9B. Human monocytes were seeded (10^6/ml) and pretreated for 1 hour with VB-201, VB-701 or VB-702, followed by 24 hour activation with 100 ng/ml LPS from Escherichia coli strain 055:B5 (Sigma, Israel) (FIG. 9A) or 300 ng/ml Pam3CSK4 (InvivoGen, San Diego, Calif., USA) (FIG. 9B) to induce cytokine production. IL-12/23p40 concentration in the supernatant was then measured by ELISA (R&D systems, Cat. No. DY1240). Cells activated with solvent (0.5% ethanol in PBS) were used as a control.

[4] = tested on: human monocytes (primary CD14+); assay: Chemokine-induced cell migration trans-well assay; assay type: cell-based; conditions: RANTES 100 ng/ml and MCP-1 50 ng/ml, 2-4 hours, FACS count
Method: as §1
Cells (10^6/ml) were pretreated for 20 min with VB-201 or VB-701 at the doses indicated in FIG. 5, or with solvent (Sol).
To test for chemokine-induced cell migration, RANTES (100 ng/ml; Cat. No. 300-06, PeproTech, Israel) and MCP-1 (50 ng/ml; Cat. No. 300-04, PeproTech, Israel) were dissolved in RPMI-1640 medium supplemented with 0.5% fetal bovine serum (FBS) and placed at the lower chamber of QCM 24-well, […], migration assay plates (Corning-Costar, Corning, N.Y.). Cells (3×10^5) were seeded in the upper chamber and incubated for 2-4 hours. Subsequently, the number of cells which migrated to the lower compartment was determined by fluorescence-activated cell sorting (FACS).

[5] = tested on: Pam3CSK4 (TLR2)-stimulated human monocytes (primary CD14+); assay: IL-12/23p40 ELISA, Pam3CSK4 (TLR2)-stimulated monocytes; assay type: cell-based; conditions: 1 hour pretreatment, 24 hour 300 ng/ml Pam3CSK4, ELISA of supernatant
Method: as §4

[6] = tested on: MCP-1-induced signaling in human monocytes (THP-1 cell line); assay: MCP-1-induced signaling, western blot; assay type: cell-based; conditions: 20 min pretreatment, 50 ng/ml MCP1, THP-1
Method: THP-1 cells (10^6/ml) were pretreated for 20 min with VB-201 or VB-701 at the doses indicated in FIG. 4, or with solvent, followed by activation with 50 ng/ml MCP1, or were untreated (“Unt”). Cells were washed and resuspended in lysis buffer containing 1:100 dithiothreitol (DTT), phosphatase and protease inhibitors (Thermo Scientific). Samples were loaded onto a precast Criterion TGX gel (Bio-Rad, Hemel Hempstead, UK) and transferred onto nitrocellulose membrane. Blots were blocked with 5% milk or BSA in Tris buffered saline and Tween 20 (TBST) for 1 h, followed by incubation with primary and secondary antibodies. Membranes were developed using an ECL kit (Thermo Scientific). The following antibodies were used for immunoblotting:
Primary antibodies: p-ERK1/2 (Cat. No. M8159; 1:10000) was purchased from Sigma (Israel). p-AKT (Cat. No. 4060; 1:1000) was purchased from Cell Signaling Technology (Danvers, Mass.). αTubulin served as a loading control and was purchased from Sigma (Israel).
as §3

[7] = tested on: RANTES-induced signaling in human monocytes (primary CD14+); assay: RANTES-induced signaling, western blot; assay type: cell-based; conditions: RANTES 100 ng/ml for 15 minutes
Method: as §2
Human monocytes were obtained, treated and analyzed by western blot as described in Example 9 and FIG. 7, except that cells were induced with RANTES (100 ng/ml; Cat. No. 300-06, PeproTech, Israel) for 15 minutes. […] Accordingly, VB-702 and VB-201 inhibit RANTES-induced signaling in human monocytes (primary CD14+).

[8] = tested on: human monocytes (THP-1 cell line); assay: SDF1-induced cell migration trans-well assay; assay type: cell-based; conditions: 5 μg/ml, 20 min pretreatment
[9] = target: T1, TLR4 complex (Homo sapiens, UniProt O00206+Q9Y6Y9); assay: LPS binding inhibition assay (biotin-LPS, FACS); conditions: biotin-LPS 100 ng/ml, FACS
T1 construct: endogenous in cells; probably the human primary monocytes of b454
T1 sequence (O00206 24-839): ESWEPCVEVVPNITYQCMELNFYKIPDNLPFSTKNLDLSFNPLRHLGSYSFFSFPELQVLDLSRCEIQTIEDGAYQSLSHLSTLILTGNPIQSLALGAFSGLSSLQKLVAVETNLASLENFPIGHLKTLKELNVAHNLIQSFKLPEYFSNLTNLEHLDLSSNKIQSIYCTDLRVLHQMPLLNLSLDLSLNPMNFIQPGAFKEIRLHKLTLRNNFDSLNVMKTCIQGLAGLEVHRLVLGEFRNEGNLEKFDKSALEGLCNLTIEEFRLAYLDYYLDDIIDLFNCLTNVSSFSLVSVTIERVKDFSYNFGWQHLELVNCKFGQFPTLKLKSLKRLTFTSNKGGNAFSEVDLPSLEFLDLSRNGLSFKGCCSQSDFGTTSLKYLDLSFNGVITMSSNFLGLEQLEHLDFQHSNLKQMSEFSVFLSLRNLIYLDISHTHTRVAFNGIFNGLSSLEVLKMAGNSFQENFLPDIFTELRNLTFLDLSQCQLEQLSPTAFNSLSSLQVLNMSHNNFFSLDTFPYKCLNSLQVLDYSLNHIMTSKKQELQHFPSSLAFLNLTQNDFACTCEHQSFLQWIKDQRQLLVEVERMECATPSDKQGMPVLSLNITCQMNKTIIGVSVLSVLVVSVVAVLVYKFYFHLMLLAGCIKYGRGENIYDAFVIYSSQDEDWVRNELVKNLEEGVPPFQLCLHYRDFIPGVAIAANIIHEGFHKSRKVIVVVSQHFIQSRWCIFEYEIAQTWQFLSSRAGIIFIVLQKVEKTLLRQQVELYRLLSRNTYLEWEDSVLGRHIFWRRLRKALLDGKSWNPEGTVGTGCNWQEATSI
T1 sequence (Q9Y6Y9 17-160 limits assumed): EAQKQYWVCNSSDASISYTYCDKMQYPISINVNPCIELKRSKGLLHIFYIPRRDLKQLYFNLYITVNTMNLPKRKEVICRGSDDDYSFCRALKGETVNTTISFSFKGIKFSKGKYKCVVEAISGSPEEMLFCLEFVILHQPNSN
Method: To assess interference with lipopolysaccharide (LPS) binding, VB-201 or VB-703 were incubated for 20 min with cells (10^6/ml) after which 100 ng/ml of biotin-LPS (InvivoGen) was added for an additional 15 minutes, all at 4° C. Cells were washed, resuspended in FACS buffer and analyzed on a FACS-Calibur device.

In the case of `CCCCCCCCCCCCCCCCOCC(COP(=O)([O-])OCC[n+]1ccccc1)OCCCCC(=O)O` (centres unmarked) [VB-701, 1-hexadecyl-2-(4′-carboxy)butyl-glycero-sn-3-phosphoric acid pyridiniumethyl ester], the “formation of p-IKK, p-ERK and p-p38 induced by LPS” value [1] is reported as “inhibit”, the “formation of p-IKK, p-ERK and p-p38 induced by PGN” value [2] is reported as “inhibit” and the “IL-12p40 levels, LPS (TLR4)-stimulated” value [3] is reported as “inhibit”. For the same molecule, the “chemokine-induced migration of human monocytes” value [4] was “inhibit”, the “IL-12p40 levels, Pam3CSK4 (TLR2)-stimulated” value [5] was “inhibit” and the “formation of p-AKT and p-ERK induced by MCP1” value [6] was “inhibit”.
For `CCCCCCCCCCCCCCCCCCCCOCC(COP(=O)([O-])OCC[n+]1ccccc1)OCCCCC(=O)O` (centres unmarked) [VB-702, 1-eicosanyl-2-(4′-carboxy)butyl-glycero-sn-3-phosphoric acid pyridiniumethyl ester], the “formation of p-IKK, p-ERK and p-p38 induced by LPS” value [1] was “inhibit”, the “IL-12p40 levels, LPS (TLR4)-stimulated” value [3] was “inhibit” and the “chemokine-induced migration of human monocytes” value [4] was “inhibit”. The “IL-12p40 levels, Pam3CSK4 (TLR2)-stimulated” value [5] was “inhibit” and the “formation of p-ERK induced by RANTES” value [7] was “inhibit”.
With `CCCCCCCCCCC(CCCCCCCC)COCC(COP(=O)([O-])OCC[n+]1ccccc1)OCCCCC(=O)OC` (centres unmarked) [VB-705, 1-(2′-octyl)dodecyl-2-(4′-carboxymethyl)butyl-glycero-sn-3-phosphoric acid pyridiniumethyl ester] the “formation of p-ERK and p-AKT induced by LPS” value ([1]; LPS activation) was “inhibit”, the “SDF1-induced migration of human monocytes (THP-1 cell line)” value [8] was “does not inhibit” and the “LPS-biotin binding to human monocytes (primary CD14+)” value [9] was “inhibits”.
